Assay results from patent US20250179061A1 (SIRONAX LTD., priority 2022, published 2025).

What follows are molecules tested on HT-29 cells (assay: HT-29 necroptosis cell viability assay (TNF-α/SMAC mimetic/zVAD-FMK, CellTiter-Glo)). Conditions: Homo sapiens, HT-29, HT-29 necroptosis cell viability, IC50 class symbols; read-out: Activity.
Type: cell-based
How it was run: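 Necroptosis was triggered by TNF-α (10 ng/ml), SMAC mimetic (6 μM) and zVAD-FMK (10 μM) in serum-free medium during 20 h compound exposure (10 concentrations, threefold steps) of HT-29 cells. IC50 from duplicate dose-responses uses CellTiter-Glo ATP luminescence as viability read-out.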

`O=c1n(Cc2c(F)cccc2F)cnn1-c1ccc(Oc2ccnc(N3CC4(CCCO4)C3)c2)cc1` [Example 331, 2-(4-((2-(5-oxa-2-azaspiro[3.4]octan-2-yl)pyridin-4-yl)oxy)phenyl)-4-(2,6-difluorobenzyl)-2,4-dihydro-3H-1,2,4-triazol-3-one] and `O=c1n(Cc2c(F)cccc2F)cnn1-c1ccc(Oc2ccnc(N3CC4(CCCCO4)C3)c2)cc1` [Example 334, 2-(4-((2-(5-oxa-2-azaspiro[3.5]nonan-2-yl)pyridin-4-yl)oxy)phenyl)-4-(2,6-difluorobenzyl)-2,4-dihydro-3H-1,2,4-triazol-3-one] cannot be ordered by IC50: < 100 nM for the first, < 100 nM for the second.

`NC1CC2(C1)CC(Nc1cc(Oc3ccc(-n4ncn(Cc5c(F)cccc5F)c4=O)cc3)ccn1)C2` (stereo not shown) [Example 332, 2-(4-((2-((6-aminospiro[3.3]heptan-2-yl)amino)pyridin-4-yl)oxy)phenyl)-4-(2,6-difluorobenzyl)-2,4-dihydro-3H-1,2,4-triazol-3-one] and `O=c1n(Cc2c(F)cccc2F)cnn1-c1ccc(Oc2ccnc(NC3CCC3)c2)cc1` [Example 344, 2-(4-((2-(cyclobutylamino)pyridin-4-yl)oxy)phenyl)-4-(2,6-difluorobenzyl)-2,4-dihydro-3H-1,2,4-triazol-3-one] fall in the same range of IC50: 100 to 1000 nM for the first, 100 to 1000 nM for the second.

`O=c1n(Cc2c(F)cccc2F)cnn1-c1ccc(Oc2ccnc(N3CCC4(COC4)C3)c2)cc1` [Example 333, 2-(4-((2-(2-oxa-6-azaspiro[3.4]octan-6-yl)pyridin-4-yl)oxy)phenyl)-4-(2,6-difluorobenzyl)-2,4-dihydro-3H-1,2,4-triazol-3-one] and `O=c1n(Cc2c(F)cccc2F)cnn1-c1ccc(Oc2ccnc(N3CCC4(CCOCC4)C3)c2)cc1` [Example 340, 2-(4-((2-(8-oxa-2-azaspiro[4.5]decan-2-yl)pyridin-4-yl)oxy)phenyl)-4-(2,6-difluorobenzyl)-2,4-dihydro-3H-1,2,4-triazol-3-one] cannot be ordered by IC50: < 100 nM for the first, < 100 nM for the second.

`O=c1n(Cc2c(F)cccc2F)cnn1-c1ccc(Oc2ccnc(N3CC4(CCCOC4)C3)c2)cc1` [Example 335, 2-(4-((2-(6-oxa-2-azaspiro[3.5]nonan-2-yl)pyridin-4-yl)oxy)phenyl)-4-(2,6-difluorobenzyl)-2,4-dihydro-3H-1,2,4-triazol-3-one] and `O=c1n(Cc2c(F)cccc2F)cnn1-c1ccc(Oc2ccnc(N3CC4(CCOCC4)C3)c2)cc1` [Example 339, 2-(4-((2-(7-oxa-2-azaspiro[3.5]nonan-2-yl)pyridin-4-yl)oxy)phenyl)-4-(2,6-difluorobenzyl)-2,4-dihydro-3H-1,2,4-triazol-3-one] cannot be ordered by IC50: < 100 nM for the first, < 100 nM for the second.

First: CCOC1CN(c2cc(Oc3ccc(-n4ncn(Cc5c(F)cccc5F)c4=O)cc3)ccn2)C1 [Example 336, 4-(2,6-difluorobenzyl)-2-(4-((2-(3-ethoxyazetidin-1-yl)pyridin-4-yl)oxy)phenyl)-2,4-dihydro-3H-1,2,4-triazol-3-one]
Second: N#CC1CN(c2cc(Oc3ccc(-n4ncn(Cc5c(F)cccc5F)c4=O)cc3)ccn2)C1 [Example 338, 1-(4-(4-(4-(2,6-difluorobenzyl)-5-oxo-4,5-dihydro-1H-1,2,4-triazol-1-yl)phenoxy)pyridin-2-yl)azetidine-3-carbonitrile]
The IC50 of the first is lower: < 100 nM for the first, 100 to 1000 nM for the second. The first is the more potent here.

First: CC1CCN(c2cc(Oc3ccc(-n4ncn(Cc5c(F)cccc5F)c4=O)cc3)ccn2)C1 (stereo not shown) [Example 337, 4-(2,6-difluorobenzyl)-2-(4-((2-(3-methylpyrrolidin-1-yl)pyridin-4-yl)oxy)phenyl)-2,4-dihydro-3H-1,2,4-triazol-3-one]
Second: CN(c1cc(Oc2ccc(-n3ncn(Cc4c(F)cccc4F)c3=O)cc2)ccn1)C1CCC1 [Example 352, 2-(4-((2-(cyclobutyl(methyl)amino)pyridin-4-yl)oxy)phenyl)-4-(2,6-difluorobenzyl)-2,4-dihydro-3H-1,2,4-triazol-3-one]
The IC50 of the first is lower: < 100 nM for the first, 100 to 1000 nM for the second. The first is the more potent here.

Compared with `O=c1n(Cc2c(F)cccc2F)cnn1-c1ccc(Oc2ccnc(NCC3COC3)c2)cc1` [Example 341, 4-(2,6-difluorobenzyl)-2-(4-((2-((oxetan-3-ylmethyl)amino)pyridin-4-yl)oxy)phenyl)-2,4-dihydro-3H-1,2,4-triazol-3-one], `O=c1n(Cc2c(F)cccc2F)cnn1-c1ccc(Oc2ccnc(NCC3CCC3)c2)cc1` [Example 342, 2-(4-((2-((cyclobutylmethyl)amino)pyridin-4-yl)oxy)phenyl)-4-(2,6-difluorobenzyl)-2,4-dihydro-3H-1,2,4-triazol-3-one] is lower in IC50: 1000 to 10000 nM for the first, 100 to 1000 nM for the second. The second is the more potent here.

First: O=c1n(Cc2c(F)cccc2F)cnn1-c1ccc(Oc2ccnc(NC3COC3)c2)cc1 [Example 343, 4-(2,6-difluorobenzyl)-2-(4-((2-(oxetan-3-ylamino)pyridin-4-yl)oxy)phenyl)-2,4-dihydro-3H-1,2,4-triazol-3-one]
Second: N#CC1CC(Nc2cc(Oc3ccc(-n4ncn(Cc5c(F)cccc5F)c4=O)cc3)ccn2)C1 (stereo not shown) [Example 351, 3-((4-(4-(4-(2,6-difluorobenzyl)-5-oxo-4,5-dihydro-1H-1,2,4-triazol-1-yl)phenoxy)pyridin-2-yl)amino)cyclobutane-1-carbonitrile]
The IC50 of the first is higher: 1000 to 10000 nM for the first, 100 to 1000 nM for the second.

`CC(C)Nc1cc(Oc2ccc(-n3ncn(Cc4c(F)cccc4F)c3=O)cc2)ccn1` [Example 345, 4-(2,6-difluorobenzyl)-2-(4-((2-(isopropylamino)pyridin-4-yl)oxy)phenyl)-2,4-dihydro-3H-1,2,4-triazol-3-one] and `CCNc1cc(Oc2ccc(-n3ncn(Cc4c(F)cccc4F)c3=O)cc2)ccn1` [Example 346, 4-(2,6-difluorobenzyl)-2-(4-((2-(ethylamino)pyridin-4-yl)oxy)phenyl)-2,4-dihydro-3H-1,2,4-triazol-3-one] fall in the same range of IC50: 100 to 1000 nM for the first, 100 to 1000 nM for the second.

Compared with `O=c1n(Cc2c(F)cccc2F)cnn1-c1ccc(Oc2ccnc(OCC3CC3)c2)cc1` [Example 347, 2-(4-((2-(cyclopropylmethoxy)pyridin-4-yl)oxy)phenyl)-4-(2,6-difluorobenzyl)-2,4-dihydro-3H-1,2,4-triazol-3-one], `C[C@@H](Nc1cc(Oc2ccc(-n3ncn(Cc4c(F)cccc4F)c3=O)cc2)ccn1)C1CCC1` [Example 348, (R)-2-(4-((2-((1-cyclobutylethyl)amino)pyridin-4-yl)oxy)phenyl)-4-(2,6-difluorobenzyl)-2,4-dihydro-3H-1,2,4-triazol-3-one] is higher in IC50: < 100 nM for the first, 100 to 1000 nM for the second.

`C[C@H](Nc1cc(Oc2ccc(-n3ncn(Cc4c(F)cccc4F)c3=O)cc2)ccn1)C1CCC1` [Example 349, (S)-2-(4-((2-((1-cyclobutylethyl)amino)pyridin-4-yl)oxy)phenyl)-4-(2,6-difluorobenzyl)-2,4-dihydro-3H-1,2,4-triazol-3-one] and `NC12CC(Nc3cc(Oc4ccc(-n5ncn(Cc6c(F)cccc6F)c5=O)cc4)ccn3)(C1)C2` [Example 354, 2-(4-((2-((3-aminobicyclo[1.1.1]pentan-1-yl)amino)pyridin-4-yl)oxy)phenyl)-4-(2,6-difluorobenzyl)-2,4-dihydro-3H-1,2,4-triazol-3-one] fall in the same range of IC50: 100 to 1000 nM for the first, 100 to 1000 nM for the second.

Compared with `O=c1n(Cc2c(F)cccc2F)cnn1-c1ccc(S(=O)(=O)c2ccnc(N3CCC3)c2)cc1` [Example 350, 2-(4-((2-(azetidin-1-yl)pyridin-4-yl)sulfonyl)phenyl)-4-(2,6-difluorobenzyl)-2,4-dihydro-3H-1,2,4-triazol-3-one], `CCN(C)c1cc(Oc2ccc(-n3ncn(Cc4c(F)cccc4F)c3=O)cc2)ccn1` [Example 353, 4-(2,6-difluorobenzyl)-2-(4-((2-(ethyl(methyl)amino)pyridin-4-yl)oxy)phenyl)-2,4-dihydro-3H-1,2,4-triazol-3-one] is higher in IC50: < 100 nM for the first, 100 to 1000 nM for the second.

`CCOC1CN(c2nccc(Oc3ccc(-n4ncn(Cc5c(F)cccc5F)c4=O)cc3)c2F)C1` [Example 355, 4-(2,6-difluorobenzyl)-2-(4-((2-(3-ethoxyazetidin-1-yl)-3-fluoropyridin-4-yl)oxy)phenyl)-2,4-dihydro-3H-1,2,4-triazol-3-one] and `COC1(C#N)CN(c2nccc(Oc3ccc(-n4ncn(Cc5c(F)cccc5F)c4=O)cc3)c2F)C1` [Example 358, 1-(4-(4-(4-(2,6-difluorobenzyl)-5-oxo-4,5-dihydro-1H-1,2,4-triazol-1-yl)phenoxy)-3-fluoropyridin-2-yl)-3-methoxyazetidine-3-carbonitrile] cannot be ordered by IC50: < 100 nM for the first, < 100 nM for the second.

`CC1(C#N)CCN(c2nccc(Oc3ccc(-n4ncn(Cc5c(F)cccc5F)c4=O)cc3)c2F)C1` (stereo not shown) [Example 356, 1-(4-(4-(4-(2,6-difluorobenzyl)-5-oxo-4,5-dihydro-1H-1,2,4-triazol-1-yl)phenoxy)-3-fluoropyridin-2-yl)-3-methylpyrrolidine-3-carbonitrile] and `CC1C(C#N)CN1c1nccc(Oc2ccc(-n3ncn(Cc4c(F)cccc4F)c3=O)cc2)c1F` (stereo not shown) [Example 357, 1-(4-(4-(4-(2,6-difluorobenzyl)-5-oxo-4,5-dihydro-1H-1,2,4-triazol-1-yl)phenoxy)-3-fluoropyridin-2-yl)-2-methylazetidine-3-carbonitrile] cannot be ordered by IC50: < 100 nM for the first, < 100 nM for the second.

`COC1(C#N)CN(c2ccnc(Cl)c2Oc2ccc(-n3ncn(Cc4c(F)cccc4F)c3=O)cc2)C1` [Example 359, 1-(2-chloro-3-(4-(4-(2,6-difluorobenzyl)-5-oxo-4,5-dihydro-1H-1,2,4-triazol-1-yl)phenoxy)pyridin-4-yl)-3-methoxyazetidine-3-carbonitrile] and `N#CC12CC(Nc3nccc(Oc4ccc(-n5ncn(Cc6c(F)cccc6F)c5=O)cc4)c3F)(C1)C2` [Example 361, 3-((4-(4-(4-(2,6-difluorobenzyl)-5-oxo-4,5-dihydro-1H-1,2,4-triazol-1-yl)phenoxy)-3-fluoropyridin-2-yl)amino)bicyclo[1.1.1]pentane-1-carbonitrile] fall in the same range of IC50: 100 to 1000 nM for the first, 100 to 1000 nM for the second.

With `O=c1n(Cc2c(F)cccc2F)cnn1-c1ccc(Oc2ccnc(NC(C3CC3)C(F)(F)F)c2F)cc1` (stereo not shown) [Example 360, 2-(4-((2-((1-cyclopropyl-2,2,2-trifluoroethyl)amino)-3-fluoropyridin-4-yl)oxy)phenyl)-4-(2,6-difluorobenzyl)-2,4-dihydro-3H-1,2,4-triazol-3-one] the IC50 was 1000 to 10000 nM.
